Measurements as given in patent US20080207665A1, “Alpha-(Aryl-or Heteroaryl-Methyl)-Beta-Piperidinopropanoic Acid Compounds as Orl-1-Receptor Antagonists” (Pfizer Inc., priority 2005, published 2008).

Assays:
human ORL1 receptor = target: T1, human ORL1 receptor (Homo sapiens, UniProt P41146); assay: ORL1-receptor binding assay ([3H]nociceptin, SPA); settings: human ORL1 receptor transfected HEK-293 cell membranes, 0.4 nM [3H]nociceptin
T1 construct: purchased PerkinElmer; host or cells: HEK-293
T1 sequence (P41146 whole entry): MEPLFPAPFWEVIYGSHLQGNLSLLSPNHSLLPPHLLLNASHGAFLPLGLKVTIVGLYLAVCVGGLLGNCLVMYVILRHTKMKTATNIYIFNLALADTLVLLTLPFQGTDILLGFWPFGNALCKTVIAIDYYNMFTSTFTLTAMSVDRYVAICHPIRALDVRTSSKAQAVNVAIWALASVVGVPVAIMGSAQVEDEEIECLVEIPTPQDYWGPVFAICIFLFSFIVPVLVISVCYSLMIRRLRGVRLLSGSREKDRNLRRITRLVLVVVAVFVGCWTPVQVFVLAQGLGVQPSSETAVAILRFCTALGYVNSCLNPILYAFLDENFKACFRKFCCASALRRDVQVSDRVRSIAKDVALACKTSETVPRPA
Description: The human ORL1 receptor transfected HEK-293 cell membranes (PerkinElmer) were incubated for 45 min at room temperature with 0.4 nM [^3H]nociceptin, 1.0 mg of wheat germ agglutinin(WGA)-coated SPA beads and various concentrations of test compounds in a final volume of 200 μL of 50 mM HEPES buffer pH 7.4 containing 10 mM MgCl2 and 1 mM EDTA. Non-specific binding (NSB) was determined by the addition of 1 μM unlabeled nociceptin. After the reaction, the assay plate was centrifuged at 1,000 rpm for 1 min and then the radioactivity was measured by WALLAC 1450 MicroBeta Trilux.
The compounds of the examples were tested in the ORL1 Receptor Binding assay.

HERG potassium channel = target: T2, HERG potassium channel (Homo sapiens, UniProt Q12809); format: binding
T2 construct: expressed in transfected cells; host or cells: HEK-293
T2 sequence (Q12809 whole entry): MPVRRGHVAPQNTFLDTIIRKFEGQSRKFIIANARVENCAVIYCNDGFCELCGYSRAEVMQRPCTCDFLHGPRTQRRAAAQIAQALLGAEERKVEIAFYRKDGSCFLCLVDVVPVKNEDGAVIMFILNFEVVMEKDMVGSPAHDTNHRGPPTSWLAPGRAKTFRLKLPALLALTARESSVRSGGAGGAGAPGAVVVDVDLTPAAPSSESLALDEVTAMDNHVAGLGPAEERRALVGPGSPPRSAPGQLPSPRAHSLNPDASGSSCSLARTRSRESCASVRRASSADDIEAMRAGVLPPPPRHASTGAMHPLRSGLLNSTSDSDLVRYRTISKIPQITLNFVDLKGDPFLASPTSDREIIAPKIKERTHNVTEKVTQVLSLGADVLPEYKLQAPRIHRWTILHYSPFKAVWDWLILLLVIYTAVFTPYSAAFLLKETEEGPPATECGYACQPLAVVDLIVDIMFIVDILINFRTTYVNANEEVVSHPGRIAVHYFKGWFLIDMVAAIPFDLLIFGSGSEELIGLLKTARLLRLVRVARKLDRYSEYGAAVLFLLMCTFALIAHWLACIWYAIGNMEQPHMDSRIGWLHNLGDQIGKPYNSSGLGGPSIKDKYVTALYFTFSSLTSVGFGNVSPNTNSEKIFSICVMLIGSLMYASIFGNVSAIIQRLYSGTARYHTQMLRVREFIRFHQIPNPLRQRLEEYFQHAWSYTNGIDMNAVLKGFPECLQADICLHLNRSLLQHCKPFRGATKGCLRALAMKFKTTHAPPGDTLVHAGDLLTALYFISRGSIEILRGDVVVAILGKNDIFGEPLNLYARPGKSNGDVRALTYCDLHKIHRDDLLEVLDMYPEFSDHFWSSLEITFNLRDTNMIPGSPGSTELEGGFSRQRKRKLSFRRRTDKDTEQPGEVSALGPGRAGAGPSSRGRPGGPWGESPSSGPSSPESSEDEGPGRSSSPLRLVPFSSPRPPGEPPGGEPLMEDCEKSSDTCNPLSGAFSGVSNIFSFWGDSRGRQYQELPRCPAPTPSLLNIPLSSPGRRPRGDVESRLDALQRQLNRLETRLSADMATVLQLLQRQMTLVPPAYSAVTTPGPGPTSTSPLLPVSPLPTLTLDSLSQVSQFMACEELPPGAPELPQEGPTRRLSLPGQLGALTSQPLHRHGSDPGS
Description: Cell paste of HEK-293 cells expressing the HERG product was suspended in 10-fold volume of 50 mM Tris buffer adjusted at pH 7.5 at 25° C. with 2 M HCl containing 1 mM MgCl2, 10 mM KCl. The cells were homogenized using a Polytron homogenizer (at the maximum power for 20 seconds) and centrifuged at 48,000 g for 20 minutes at 4° C. The pellet was resuspended, homogenized and centrifuged once more in the same manner. The resultant supernatant was discarded and the final pellet was resuspended (10-fold volume of 50 mM Tris buffer) and homogenized at the maximum power for 20 seconds. The membrane homogenate was aliquoted and stored at −80° C. until use. An aliquot was used for protein concentration determination using a Protein Assay Rapid Kit and ARVO SX plate reader (Wallac). […] Saturation was determined by incubating 20 μl of [^3H]-dofetilide and 160 μl of membrane homogenates (20-30 μg protein per well) for 60 min at room temperature in the absence or presence of 10 μM dofetilide at final concentrations (20 μl) for total or nonspecific binding, respectively. […] Receptor-bound radioactivity was quantified by liquid scintillation counting using Packard LS counter.
For the competition assay, compounds were diluted in 96 well polypropylene plates as 4-point dilutions in semi-log format. […] Receptor-bound radioactivity was quantified by counting Wallac MicroBeta plate counter.

SMILES | Ki (human ORL1 receptor) [nM] | activity in the dofetilide binding assay (HERG potassium channel) | predicted HERG potassium channel inhibitory activity (HERG potassium channel)
O=C(O)C(Cc1cc(O)ccc1Cl)CN1C2CCC1CC1(C2)OCCc2cc(F)ccc21 (stereo not drawn) [Example 9, 2-(2-Chloro-5-hydroxybenzyl)-3-(6′-fluoro-3′,4′-dihydro-8H-spiro[8-azabicyclo[3.2.1]octane-3,1′-isochromen]-8-yl)propanoic acid] | 1.2 |  | 
O=C(O)C(Cc1cc(O)ccc1Cl)CN1C2CCC1CC1(C2)OCc2ccc(F)cc21 (stereo not drawn) [Example 10, 2-(2-Chloro-5-hydroxybenzyl)-3-(6′-fluoro-3′H,8H-spiro[8-azabicyclo[3.2.1]octane-3,1′-[2]benzofuran]-8-yl)propanoic acid] | 3.3 |  | 
CN1C(=O)C(CN2CCC3(CCc4ccccc43)CC2)Cc2ccccc21 (stereo not drawn) [Compound (i)] |  | potent activity | high
O=C(O)C(Cc1ccccc1Cl)CN1C2CCC1CC1(C2)OCc2ccc(F)cc21 (stereo not drawn) [Example 8, 2-(2-Chlorobenzyl)-3-(6′-fluoro-3′H,8H-spiro[8-azabicyclo[3.2.1]octane-3,1′-[2]benzofuran]-8-yl)propanoic acid] | 3.4 |  | 
O=C(O)C(Cc1ccccc1Cl)CN1C2CCC1CC1(C2)OCCc2cc(F)ccc21 (stereo not drawn) [Example 7, 2-(2-Chlorobenzyl)-3-(6′-fluoro-3′,4′-dihydro-8H-spiro[8-azabicyclo[3.2.1]octane-3,1′-isochromen]-8-yl)propanoic acid] | 1.3 |  | 
